This note sets out measurements from patent US12103919B2, “3-(5-oxy)-1-oxoisoindolin-2-yl)piperidine-2,6-dione derivatives and uses thereof” (NOVARTIS AG, priority 2021, dated 2024).

One test addresses T1, SALL4 (Homo sapiens, UniProt Q96SW2+Q9UJQ4).
T1 construct: expressed in transfected cells; host or cells: GripTite 293 MSR cells (293GT), ThermoFisher Scientific, stably transfected by electroporation, blasticidin-selected clones
Briefly: Quantification of SALL4 protein levels in HiBiT tag fusion protein assay. The test is classed as cell-based. The conditions noted are these: for SALL4 Amax: DMSO-normalized, curve-fitted percentage of SALL4-HiBiT remaining at 50 uM, mean over repeats; for DC50: arithmatic mean over number of repeats, 18 hours, top 50 μM, read-out: SALL4 AC50. The method, then: The HiBiT system from Promega was used to develop high-throughput and quantitative assays to measure changes in SALL4 protein levels in response to compounds. The HiBiT tag was derived from a split Nanoluciferase and has the following protein sequence: […] (SEQ ID No: 1). The complementary fragment of Nanoluciferase (known as LgBiT, from Promega), was added to the HiBiT tag to form an active Nanoluciferase enzyme whose activity can be precisely measured. In this way, the levels of a fusion protein with the HiBiT tag can be quantified in cell lysates.
DNA constructs, based on the Invitrogen pLenti6.2/V5 DEST backbone, were constructed with the HiBiT tag upstream of SALL4 and expressed the fusion protein from a CMV promotor.
To ensure moderate and consistent expression of the HiBiT-SALL4 fusion protein across all cells in the population, stable cell lines were derived from clones. GripTite 293 MSR cells (293GT) from ThermoFisher Scientific (Catalog number: CRL-R79507), were stably transfected with prepared constructs via electroporation. Following recovery, cells were selected by 10 ug/mL blasticidin in culture media.
The levels of HiBiT-SALL4 tagged fusion proteins in compound-treated cell lines were measured as follows:
On day 1, cells were diluted to 1.0×10^6 cells/ml in normal growth medium. 20 μL of cell suspension were plated in each well of a solid white 384-well plate. Plates were incubated overnight in a 37° C. and 5% CO2 humidified tissue culture incubator.
On day 2, serial dilutions of compounds were made in 384-well plates. Compound plates were set up with DMSO in columns 1, 2, 23, 24, and 10-point compound dilution series in column 3-12 and column 13-22. 10 mM stock solution of compound were placed into column 3 or 13 and a 1:5 serial dilution was carried out until there was a 10-point dilution series per compound. 100 nL of diluted compounds were transferred into the plated cells by Echo® (Labcyte) acoustic transfer. The highest concentration of compound was 50 μM. Plates were incubated overnight (18 hours) in a 37° C. and 5% CO2 humidified tissue culture incubator.
On day 3, plates were removed from the incubator and allowed to equilibrate at room temperature for 60 minutes. HiBiT substrate (Nano-Glo® HiBit Lytic Detection System, Promega Catalogue number: N3050) was added as described by the manufacturers protocols. Plates were incubated at room temperature for 30 minutes and luminescence was read using an EnVision® reader (PerkinElmer®). Data was analyzed and visualized using the Spotfire® software package.
SALL4 Amax reflects the DMSO-normalized, curve-fitted percentage of SALL4-HiBiT remaining at 50 uM. It was calculated by normalizing DMSO controls to 100%, parametric curve fitting of the dose response data (10-point, 5-fold), followed by calculation of response at 50 uM using the fitted equation.
This assay produced a range of SALL4 AC50 and Amax values over several repeat runs due to normal variations in the assay. For a comparison to the compounds described in PCT/IB2020/062070, the arithmatic mean values are reported over the number of repeats specified. […] The compounds of the present disclosure are therefore expected to have improved toxicological properties (Matyskiela, M. E., Couto, S., Zheng, X. et al. SALL4 mediates teratogenicity as a thalidomide-dependent cereblon substrate. Nat Chem Biol 14, 981-987 (2018); Donovan, K. A. et al. Thalidomide promotes degradation of SALL4, a transcription factor Implicated in Duane Radial Ray syndrome. eLife 2018; 7:e38430).

In another test the target is T2, WIZ (Homo sapiens, UniProt O95785+Q96SW2).
T2 construct: expressed in transfected cells
The test can be described thus: Quantification of WIZ protein levels in HiBit tag fusion protein assay (293T cells). The test is classed as cell-based. More on the design: Dmax: dose or concentration left out as unconfirmed. The method in brief: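 293T cells stably carrying a single-copy HiBit-WIZ fusion were exposed to compounds for about 18 hours at 37° C., top concentration 25 μM, 10-point 5-fold series. Lysates were complemented with LgBit and luminescence was read. Amax is the DMSO-normalized, curve-fitted percentage of WIZ-HiBit remaining at 25 uM.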

For the next test, the system named is Fetal Hemoglobin (HbF). Briefly: Small molecule HbF induction assay in erythroid-differentiated mPB CD34+ cells (flow cytometry). As to conditions: highest percentage of cells staining positive for HbF (% HbF+ cells) in fitted dose-response curve; DMSO baseline approximately 30-40%. The class given is cell-based, human. How it is done:
Cryopreserved primary human CD34^+ hematopoietic stem and progenitor cells were obtained from AllCeIIs, LLC. The CD34^+ cells were isolated from the peripheral blood of healthy donors after mobilization by administration of granulocyte colony-stimulating factor. Cells were differentiated ex vivo toward the erythroid lineage using a 2-phase culture method. In the first phase, cells were cultured in Stemspan™ Serum-Free Expansion Media (SFEM) ([…] Technologies Inc.) supplemented with rhSCF (50 ng/mL, Peprotech®, Inc.), rhlL-6 (50 ng/mL, Peprotech®, Inc.), rhlL-3 (50 ng/mL, Peprotech®, Inc.), and rhFlt3L (50 ng/mL, Peprotech®, Inc.), and 1× antibiotic-antimycotic (Life Technologies, Thermo Fisher Scientific) for 6 days at 37° C. with 5% CO2. During the second phase, cells were cultured in erythroid differentiation media at 5,000 cells/mL in the presence of compound for 7 days at 37° C. with 5% […]. Erythroid Differentiation Media is comprised of IMDM (Life Technologies) supplemented with insulin (10 μg/mL. Sigma Aldrich), heparin (2 U/mL Sigma Aldrich), holo-transferrin (330 μg/mL, Sigma Aldrich), human serum AB (5%, Sigma Aldrich), hydrocortisone (1 μM, […] Technologies), rhSCF (100 ng/mL, Peprotech®, Inc.), rhIL-3 (5 ng/mL. Peprotech®, Inc.), rhEPO (3 U/mL, Peprotech®, Inc.), and 1× antibiotic-antimycotic. All compounds were dissolved and diluted into dimethylsulfoxide (DMSO) and were added to culture media for a final concentration of 0.3% DMSO for testing in a 10-point, 1:3 dilution series starting at 10 uM.
For viability analysis, samples were washed and resuspended in phosphate-buffered saline (PBS) and stained with LlVE/DEAD™ Fixable Violet Dead Cell Stain Kit (Life Technologies, L34963) for 20 minutes. Cells were then washed again with PBS and resuspended in PBS supplemented with 2% fetal bovine serum (FBS), and 2 mM EDTA to prepare for cell surface marker analysis. […]
mPB CD34+ cells were expanded for 6 days, then erythroid differentiated in the presence of compound for 7 days. Cells were fixed, stained and analyzed by flow cytometry. […]
In general terms: Flow cytometry measures light scatter and fluorescence of single cells or particles in a stream.

Like-named read-outs stand apart in the source and are kept apart here.

T1 sequence (Q9UJQ4 whole entry): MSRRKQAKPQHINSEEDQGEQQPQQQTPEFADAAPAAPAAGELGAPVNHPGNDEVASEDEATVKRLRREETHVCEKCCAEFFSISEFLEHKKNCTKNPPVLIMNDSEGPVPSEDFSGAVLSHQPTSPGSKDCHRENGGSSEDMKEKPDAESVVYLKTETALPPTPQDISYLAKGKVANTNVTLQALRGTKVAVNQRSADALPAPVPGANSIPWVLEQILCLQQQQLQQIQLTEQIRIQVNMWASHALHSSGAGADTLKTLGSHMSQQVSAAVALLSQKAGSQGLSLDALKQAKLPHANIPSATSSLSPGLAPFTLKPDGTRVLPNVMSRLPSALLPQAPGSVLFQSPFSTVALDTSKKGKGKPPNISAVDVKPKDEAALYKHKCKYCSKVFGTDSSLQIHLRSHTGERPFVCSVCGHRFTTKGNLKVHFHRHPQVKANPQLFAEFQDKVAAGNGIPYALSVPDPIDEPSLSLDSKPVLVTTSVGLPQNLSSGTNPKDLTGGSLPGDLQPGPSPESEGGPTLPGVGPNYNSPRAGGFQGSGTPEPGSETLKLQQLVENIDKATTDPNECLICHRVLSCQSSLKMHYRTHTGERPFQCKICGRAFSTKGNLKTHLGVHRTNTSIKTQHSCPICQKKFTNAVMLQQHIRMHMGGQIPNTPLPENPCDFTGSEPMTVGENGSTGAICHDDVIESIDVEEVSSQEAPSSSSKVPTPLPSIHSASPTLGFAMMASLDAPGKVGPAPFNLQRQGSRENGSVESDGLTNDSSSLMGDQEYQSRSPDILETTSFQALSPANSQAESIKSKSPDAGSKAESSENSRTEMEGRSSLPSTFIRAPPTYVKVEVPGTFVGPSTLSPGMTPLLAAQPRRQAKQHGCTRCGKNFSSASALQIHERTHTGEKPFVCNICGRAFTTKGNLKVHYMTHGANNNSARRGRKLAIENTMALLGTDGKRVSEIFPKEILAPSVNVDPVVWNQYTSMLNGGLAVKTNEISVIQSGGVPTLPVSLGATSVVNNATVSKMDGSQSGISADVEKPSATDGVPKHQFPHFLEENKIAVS
T1 sequence (Q96SW2 whole entry): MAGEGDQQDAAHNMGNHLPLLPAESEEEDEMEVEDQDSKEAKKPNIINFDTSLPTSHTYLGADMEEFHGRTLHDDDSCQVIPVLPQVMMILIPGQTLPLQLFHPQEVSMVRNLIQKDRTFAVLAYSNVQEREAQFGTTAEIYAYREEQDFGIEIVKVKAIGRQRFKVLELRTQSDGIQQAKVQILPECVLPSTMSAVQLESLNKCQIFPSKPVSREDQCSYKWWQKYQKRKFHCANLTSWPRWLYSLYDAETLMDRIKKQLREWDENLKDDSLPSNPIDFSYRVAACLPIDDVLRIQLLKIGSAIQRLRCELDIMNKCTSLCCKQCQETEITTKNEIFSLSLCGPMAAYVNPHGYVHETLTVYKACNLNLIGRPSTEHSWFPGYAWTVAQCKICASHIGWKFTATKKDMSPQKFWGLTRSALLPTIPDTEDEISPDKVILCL
T1 sequence (Q16531 whole entry partner): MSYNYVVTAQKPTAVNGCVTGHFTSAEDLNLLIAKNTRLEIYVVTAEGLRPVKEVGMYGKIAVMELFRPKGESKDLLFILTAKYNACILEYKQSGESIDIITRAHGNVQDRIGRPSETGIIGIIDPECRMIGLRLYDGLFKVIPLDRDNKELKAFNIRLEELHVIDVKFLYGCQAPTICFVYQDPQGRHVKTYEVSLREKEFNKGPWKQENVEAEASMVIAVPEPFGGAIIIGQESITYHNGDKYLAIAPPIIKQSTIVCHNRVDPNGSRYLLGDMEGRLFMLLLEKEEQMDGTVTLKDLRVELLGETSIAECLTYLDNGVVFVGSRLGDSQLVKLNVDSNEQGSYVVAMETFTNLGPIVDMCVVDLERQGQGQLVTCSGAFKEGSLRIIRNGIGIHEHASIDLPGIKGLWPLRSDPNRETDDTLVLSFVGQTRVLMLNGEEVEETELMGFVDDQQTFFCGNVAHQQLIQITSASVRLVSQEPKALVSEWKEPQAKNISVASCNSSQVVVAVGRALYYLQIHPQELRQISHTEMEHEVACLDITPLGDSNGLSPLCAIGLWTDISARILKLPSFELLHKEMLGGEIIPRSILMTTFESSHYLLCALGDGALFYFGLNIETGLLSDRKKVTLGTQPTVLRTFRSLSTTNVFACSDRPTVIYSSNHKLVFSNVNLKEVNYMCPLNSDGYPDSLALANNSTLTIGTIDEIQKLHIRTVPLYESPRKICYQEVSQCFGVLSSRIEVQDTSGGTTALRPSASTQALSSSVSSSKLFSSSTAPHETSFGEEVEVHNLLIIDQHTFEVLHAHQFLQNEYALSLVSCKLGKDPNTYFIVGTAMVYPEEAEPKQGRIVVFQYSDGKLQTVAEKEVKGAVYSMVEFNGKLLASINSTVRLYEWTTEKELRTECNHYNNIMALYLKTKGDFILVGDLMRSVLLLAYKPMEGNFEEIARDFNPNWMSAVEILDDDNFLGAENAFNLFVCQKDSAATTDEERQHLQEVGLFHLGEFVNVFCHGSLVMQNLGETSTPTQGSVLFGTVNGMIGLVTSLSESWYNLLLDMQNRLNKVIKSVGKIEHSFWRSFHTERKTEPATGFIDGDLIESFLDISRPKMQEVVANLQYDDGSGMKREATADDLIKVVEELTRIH
T2 sequence (O95785 whole entry): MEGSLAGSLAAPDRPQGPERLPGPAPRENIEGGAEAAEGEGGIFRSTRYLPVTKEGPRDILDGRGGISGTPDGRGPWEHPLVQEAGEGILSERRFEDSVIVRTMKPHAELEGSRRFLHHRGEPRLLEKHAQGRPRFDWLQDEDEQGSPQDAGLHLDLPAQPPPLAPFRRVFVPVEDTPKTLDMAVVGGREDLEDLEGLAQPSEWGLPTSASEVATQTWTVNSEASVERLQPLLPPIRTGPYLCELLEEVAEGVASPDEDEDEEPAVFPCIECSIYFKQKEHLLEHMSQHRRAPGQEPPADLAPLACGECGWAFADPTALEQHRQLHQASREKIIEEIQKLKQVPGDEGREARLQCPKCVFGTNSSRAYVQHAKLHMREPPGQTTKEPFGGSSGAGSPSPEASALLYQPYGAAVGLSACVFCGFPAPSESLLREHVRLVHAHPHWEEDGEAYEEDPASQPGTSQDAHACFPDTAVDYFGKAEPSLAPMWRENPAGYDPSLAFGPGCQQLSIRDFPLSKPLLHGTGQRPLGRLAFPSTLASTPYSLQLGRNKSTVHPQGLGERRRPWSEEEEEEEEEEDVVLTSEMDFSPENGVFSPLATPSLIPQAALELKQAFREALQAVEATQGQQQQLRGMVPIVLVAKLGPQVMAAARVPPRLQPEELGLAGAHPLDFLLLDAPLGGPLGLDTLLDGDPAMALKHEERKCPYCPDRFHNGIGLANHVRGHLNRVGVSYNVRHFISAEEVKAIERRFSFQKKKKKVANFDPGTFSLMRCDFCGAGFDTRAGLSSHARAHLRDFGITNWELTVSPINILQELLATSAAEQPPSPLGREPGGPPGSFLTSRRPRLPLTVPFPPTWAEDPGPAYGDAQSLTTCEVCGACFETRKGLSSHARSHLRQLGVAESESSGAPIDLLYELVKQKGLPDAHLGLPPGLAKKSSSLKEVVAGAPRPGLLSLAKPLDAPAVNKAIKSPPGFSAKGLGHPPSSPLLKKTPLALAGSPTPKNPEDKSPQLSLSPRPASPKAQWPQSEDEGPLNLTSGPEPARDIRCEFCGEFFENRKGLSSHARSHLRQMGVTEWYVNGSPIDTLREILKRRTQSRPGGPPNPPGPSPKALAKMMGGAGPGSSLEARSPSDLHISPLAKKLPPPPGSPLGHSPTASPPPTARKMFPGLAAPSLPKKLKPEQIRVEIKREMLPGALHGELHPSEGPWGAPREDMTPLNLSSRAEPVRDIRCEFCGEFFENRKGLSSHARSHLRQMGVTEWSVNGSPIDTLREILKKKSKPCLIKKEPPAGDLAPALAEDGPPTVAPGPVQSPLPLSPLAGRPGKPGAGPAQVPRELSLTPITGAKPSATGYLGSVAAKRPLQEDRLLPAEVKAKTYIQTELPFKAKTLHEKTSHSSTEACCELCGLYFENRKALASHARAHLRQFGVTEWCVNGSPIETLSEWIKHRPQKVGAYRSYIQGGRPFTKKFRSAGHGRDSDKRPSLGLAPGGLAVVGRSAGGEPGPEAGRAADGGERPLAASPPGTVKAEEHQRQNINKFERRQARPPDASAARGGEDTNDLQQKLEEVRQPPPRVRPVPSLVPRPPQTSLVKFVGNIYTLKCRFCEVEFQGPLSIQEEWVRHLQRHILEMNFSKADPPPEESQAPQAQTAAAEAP
T2 sequence (Q96SW2 whole entry): as the sequence (Q96SW2 whole entry) above
T2 sequence (Q16531 whole entry partner): as the sequence (Q16531 whole entry partner) above

On to `O=C1CCC(N2Cc3cc(O[C@@H]4CCCN(CC5CC5)C4)ccc3C2=O)C(=O)N1` (stereo partly drawn) [Example 13, 3-(5-(((R)-1-(cyclopropylmethyl)piperidin-3-yl)oxy)-1-oxoisoindolin-2-yl)piperidine-2,6-dione], for which the “SALL4 Amax” value at SALL4 was determined as 70.82%. Further, the DC50 at SALL4 was 140 nM; at WIZ (WIZ HiBit assay in 293T cells, about 18 hours, 10-point 5-fold dilution, top 25 μM; read-out: WIZ AC50), 14 nM; on WIZ (updated arithmatic mean over the number of repeats specified, assay of Example 89; read-out: WIZ AC50), 21 nM. Besides, the remaining activity at 25 µM at WIZ (HEK-293T; DMSO-normalized, curve-fitted percentage of WIZ-HiBit remaining at 25 uM; read-out: WIZ Amax) stood at 27.6%. Also, on WIZ (HEK-293T; at 25 uM, 100 − Amax; read-out: % degradation of WIZ (100 − Amax)), the Dmax at 25 µM amounted to 72.4%.

With `CCN1C[C@H](Oc2ccc3c(c2)CN(C2CCC(=O)NC2=O)C3=O)CC[C@@H]1C` (stereo partly drawn) [Example 41, 3-(5-(((3R,6S)-1-ethyl-6-methylpiperidin-3-yl)oxy)-1-oxoisoindolin-2-yl)piperidine-2,6-dione], the “HbF Amax” value with Fetal Hemoglobin (HbF) is 73.1%. Also, the Dmax on WIZ (HEK-293T, read-out: % degradation of WIZ (100 − Amax)) came out at 88.6%. Besides, the remaining activity at 25 µM on WIZ (HEK-293T, read-out: WIZ Amax) came to 11.4%. The DC50 at WIZ (read-out: WIZ AC50; WIZ HiBit assay in 293T cells, about 18 hours, 10-point 5-fold dilution, top 25 μM) is 0.14 nM.

In the case of `O=C1CCC(N2Cc3cc(OC[C@H]4CCCCN4CC4CC4)ccc3C2=O)C(=O)N1` (stereo partly drawn) [Comparative Example 3, 3-(5-(((R)-1-(cyclopropylmethyl)piperidin-2-yl)methoxy)-1-oxoisoindolin-2-yl)piperidine-2,6-dione, reference compound], at SALL4, the “SALL4 Amax” value worked out at 52.88% and the DC50 was 130 nM.

As for `CCN1CCCC[C@@H]1COc1ccc2c(c1)CN(C1CCC(=O)NC1=O)C2=O` (mixture of isomers) [Comparative Example 1, 3-(5-(((R)-1-ethylpiperidin-2-yl)methoxy)-1-oxoisoindolin-2-yl)piperidine-2,6-dione, reference compound], on SALL4, the “SALL4 Amax” value was determined as 51.51% and the DC50 is 160 nM. In addition, in the test with Fetal Hemoglobin (HbF), the “HbF Amax” value was determined as 64.1%.
